Measurements reported in ChEMBL document CHEMBL5678810.
Active and inactive are the calls of the source. No cut-off for these calls is given here.

Legend:
[1] = molecular target: RAC-beta serine/threonine-protein kinase (Homo sapiens) (UniProt P31751); experiment: Inhibition of T7 bacteriophage fused human AKT2 at 10 uM by KINOMEscan analysis relative to control
[2] = molecular target: Fibroblast growth factor receptor 1 (Homo sapiens) (UniProt P11362); experiment: Inhibition of T7 bacteriophage fused human FGFR1 at 10 uM by KINOMEscan analysis relative to control; values are per cent of control
[3] = molecular target: Rho-associated protein kinase 2 (Homo sapiens) (UniProt O75116); experiment: Inhibition of T7 bacteriophage fused human ROCK2 at 10 uM by KINOMEscan analysis relative to control
[4] = molecular target: Death-associated protein kinase 2 (Homo sapiens) (UniProt Q9UIK4); experiment: Inhibition of T7 bacteriophage fused human DAPK2 at 10 uM by KINOMEscan analysis relative to control; values are per cent of control
[5] = molecular target: Activin receptor type-2A (Homo sapiens) (UniProt P27037); experiment: Inhibition of T7 bacteriophage fused human ACVR2A at 10 uM by KINOMEscan analysis relative to control
[6] = test system: Epidermal growth factor receptor (Homo sapiens), P00533 [L861Q]; experiment: Inhibition of T7 bacteriophage fused human EGFR L861Q mutant at 10 uM by KINOMEscan analysis relative to control
Epidermal growth factor receptor (Homo sapiens), P00533 [L861Q], sequence (P00533 whole entry L861Q, the tested form may be a part): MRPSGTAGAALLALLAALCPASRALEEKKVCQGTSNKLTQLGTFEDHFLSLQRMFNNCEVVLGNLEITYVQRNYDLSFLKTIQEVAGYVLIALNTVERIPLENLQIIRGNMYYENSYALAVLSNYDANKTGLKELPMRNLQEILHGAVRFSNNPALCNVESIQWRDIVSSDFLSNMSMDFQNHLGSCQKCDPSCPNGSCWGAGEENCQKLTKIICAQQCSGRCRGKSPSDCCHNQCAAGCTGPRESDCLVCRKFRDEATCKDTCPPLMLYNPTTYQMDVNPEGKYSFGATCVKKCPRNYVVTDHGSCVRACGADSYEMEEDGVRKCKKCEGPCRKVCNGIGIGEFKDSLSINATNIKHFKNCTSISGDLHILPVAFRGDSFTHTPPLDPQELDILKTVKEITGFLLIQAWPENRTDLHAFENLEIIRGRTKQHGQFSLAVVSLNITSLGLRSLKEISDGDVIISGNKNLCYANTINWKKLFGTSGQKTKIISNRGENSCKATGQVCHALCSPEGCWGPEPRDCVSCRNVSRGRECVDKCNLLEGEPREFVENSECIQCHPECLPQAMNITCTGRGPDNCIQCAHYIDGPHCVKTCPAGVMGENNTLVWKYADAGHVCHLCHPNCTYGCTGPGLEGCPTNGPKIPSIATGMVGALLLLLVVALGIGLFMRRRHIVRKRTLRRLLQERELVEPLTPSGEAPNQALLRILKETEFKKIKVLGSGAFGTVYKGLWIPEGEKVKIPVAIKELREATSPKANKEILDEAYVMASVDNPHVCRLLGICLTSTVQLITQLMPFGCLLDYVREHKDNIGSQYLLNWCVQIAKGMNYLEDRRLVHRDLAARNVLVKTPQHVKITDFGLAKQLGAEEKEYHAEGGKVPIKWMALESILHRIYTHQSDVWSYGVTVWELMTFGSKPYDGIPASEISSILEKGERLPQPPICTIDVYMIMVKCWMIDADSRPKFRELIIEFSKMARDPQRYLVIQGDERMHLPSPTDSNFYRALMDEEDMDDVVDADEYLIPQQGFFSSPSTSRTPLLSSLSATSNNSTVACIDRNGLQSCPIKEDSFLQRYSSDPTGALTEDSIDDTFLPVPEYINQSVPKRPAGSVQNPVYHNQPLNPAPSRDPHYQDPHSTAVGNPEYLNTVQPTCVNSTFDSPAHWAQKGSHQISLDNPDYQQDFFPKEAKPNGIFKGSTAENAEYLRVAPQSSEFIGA

[7] = molecular target: Serine/threonine-protein kinase Nek2 (Homo sapiens) (UniProt P51955); experiment: Inhibition of T7 bacteriophage fused human NEK2 at 10 uM by KINOMEscan analysis relative to control
Serine/threonine-protein kinase Nek2 (Homo sapiens), sequence (P51955 whole entry, the tested form may be a part): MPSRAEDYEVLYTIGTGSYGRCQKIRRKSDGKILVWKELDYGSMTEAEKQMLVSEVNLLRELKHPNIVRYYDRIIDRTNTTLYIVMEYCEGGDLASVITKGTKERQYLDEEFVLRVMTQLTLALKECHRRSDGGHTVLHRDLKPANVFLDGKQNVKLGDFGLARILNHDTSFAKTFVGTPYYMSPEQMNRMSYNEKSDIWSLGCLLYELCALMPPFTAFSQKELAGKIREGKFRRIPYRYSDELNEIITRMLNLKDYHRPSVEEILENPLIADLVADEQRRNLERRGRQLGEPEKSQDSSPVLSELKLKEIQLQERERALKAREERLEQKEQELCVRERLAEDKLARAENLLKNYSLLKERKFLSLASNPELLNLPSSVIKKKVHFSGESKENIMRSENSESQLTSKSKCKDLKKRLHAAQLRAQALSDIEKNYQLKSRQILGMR

[8] = molecular target: Dual specificity mitogen-activated protein kinase kinase 2 (Homo sapiens) (UniProt P36507); experiment: Inhibition of T7 bacteriophage fused human MEK2 at 10 uM by KINOMEscan analysis relative to control; values are per cent of control
[9] = molecular target: AP2-associated protein kinase 1 (Homo sapiens) (UniProt Q2M2I8); experiment: Inhibition of T7 bacteriophage fused human AAK1 at 10 uM by KINOMEscan analysis relative to control
AP2-associated protein kinase 1 (Homo sapiens), sequence (Q2M2I8 whole entry, looked up, the tested form may be a part): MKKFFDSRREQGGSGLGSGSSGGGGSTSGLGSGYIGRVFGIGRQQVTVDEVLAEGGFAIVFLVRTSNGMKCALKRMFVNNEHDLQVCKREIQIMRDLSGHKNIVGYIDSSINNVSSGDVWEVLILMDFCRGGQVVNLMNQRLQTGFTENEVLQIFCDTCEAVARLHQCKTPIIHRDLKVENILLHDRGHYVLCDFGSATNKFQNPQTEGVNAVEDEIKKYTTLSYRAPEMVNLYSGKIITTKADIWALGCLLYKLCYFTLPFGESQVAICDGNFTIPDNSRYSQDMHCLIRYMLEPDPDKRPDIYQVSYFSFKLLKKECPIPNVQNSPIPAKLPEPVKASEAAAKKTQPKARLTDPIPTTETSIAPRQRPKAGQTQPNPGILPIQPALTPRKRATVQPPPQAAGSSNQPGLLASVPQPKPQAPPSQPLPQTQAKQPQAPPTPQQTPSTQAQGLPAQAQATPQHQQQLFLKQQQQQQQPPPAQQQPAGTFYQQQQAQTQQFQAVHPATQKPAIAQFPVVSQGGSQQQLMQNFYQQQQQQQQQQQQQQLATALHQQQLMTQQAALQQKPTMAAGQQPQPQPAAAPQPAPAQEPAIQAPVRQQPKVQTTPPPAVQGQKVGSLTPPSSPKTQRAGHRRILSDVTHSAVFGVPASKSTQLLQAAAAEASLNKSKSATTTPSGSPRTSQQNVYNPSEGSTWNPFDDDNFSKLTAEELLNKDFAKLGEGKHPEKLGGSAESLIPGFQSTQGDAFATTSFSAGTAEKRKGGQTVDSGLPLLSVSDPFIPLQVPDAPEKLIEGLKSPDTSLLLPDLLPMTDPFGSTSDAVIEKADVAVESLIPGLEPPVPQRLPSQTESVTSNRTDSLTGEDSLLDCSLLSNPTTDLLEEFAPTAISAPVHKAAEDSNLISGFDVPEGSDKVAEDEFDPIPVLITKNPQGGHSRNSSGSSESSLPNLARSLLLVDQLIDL

[10] = molecular target: Serine/threonine-protein kinase/endoribonuclease IRE1 (Homo sapiens) (UniProt O75460); experiment: Inhibition of T7 bacteriophage fused human ERN1 at 10 uM by KINOMEscan analysis relative to control; values are per cent of control
[11] = molecular target: Phosphatidylinositol 4-phosphate 5-kinase type-1 alpha (Homo sapiens) (UniProt Q99755); experiment: Inhibition of T7 bacteriophage fused human PIP5K1A at 10 uM by KINOMEscan analysis relative to control
[12] = molecular target: Tyrosine-protein kinase Lyn (Homo sapiens) (UniProt P07948); experiment: Inhibition of T7 bacteriophage fused human LYN at 10 uM by KINOMEscan analysis relative to control
[13] = molecular target: Cyclin-dependent kinase 13 (Homo sapiens) (UniProt Q14004); experiment: Inhibition of T7 bacteriophage fused human CDC2L5 at 10 uM by KINOMEscan analysis relative to control
[14] = molecular target: Serine/threonine-protein kinase DCLK2 (Homo sapiens) (UniProt Q8N568); experiment: Inhibition of T7 bacteriophage fused human DCAMKL2 at 10 uM by KINOMEscan analysis relative to control
[15] = molecular target: Ephrin type-A receptor 1 (Homo sapiens) (UniProt P21709); experiment: Inhibition of T7 bacteriophage fused human EPHA1 at 10 uM by KINOMEscan analysis relative to control
[16] = molecular target: Tyrosine-protein kinase Fyn (Homo sapiens) (UniProt P06241); experiment: Inhibition of T7 bacteriophage fused human FYN at 10 uM by KINOMEscan analysis relative to control
[17] = test system: Tyrosine-protein kinase ABL1 (Homo sapiens), P00519 [Q252H]; experiment: Inhibition of T7 bacteriophage fused human phosphorylated ABL1 Q252H mutant at 10 uM by KINOMEscan analysis relative to control
[18] = molecular target: Rhodopsin kinase GRK7 (Homo sapiens) (UniProt Q8WTQ7); experiment: Inhibition of T7 bacteriophage fused human GRK7 at 10 uM by KINOMEscan analysis relative to control
[19] = molecular target: Serine/threonine-protein kinase SBK1 (Homo sapiens) (UniProt Q52WX2); experiment: Inhibition of T7 bacteriophage fused human SBK1 at 10 uM by KINOMEscan analysis relative to control
[20] = molecular target: Serine/threonine-protein kinase 38-like (Homo sapiens) (UniProt Q9Y2H1); experiment: Inhibition of T7 bacteriophage fused human NDR2 at 10 uM by KINOMEscan analysis relative to control
[21] = molecular target: Mitogen-activated protein kinase 14 (Homo sapiens) (UniProt Q16539); experiment: Inhibition of T7 bacteriophage fused human p38-alpha at 10 uM by KINOMEscan analysis relative to control; values are per cent of control
[22] = molecular target: Serine/threonine-protein kinase PLK3 (Homo sapiens) (UniProt Q9H4B4); experiment: Inhibition of T7 bacteriophage fused human PLK3 at 10 uM by KINOMEscan analysis relative to control
[23] = molecular target: Serine/threonine-protein kinase PAK 3 (Homo sapiens) (UniProt O75914); experiment: Inhibition of T7 bacteriophage fused human PAK3 at 10 uM by KINOMEscan analysis relative to control
[24] = molecular target: Serine/threonine-protein kinase PAK 2 (Homo sapiens) (UniProt Q13177); experiment: Inhibition of T7 bacteriophage fused human PAK2 at 10 uM by KINOMEscan analysis relative to control
[25] = test system: Receptor-type tyrosine-protein kinase FLT3 (Homo sapiens), P36888 [R834Q]; experiment: Inhibition of T7 bacteriophage fused human FLT3 R834Q mutant at 10 uM by KINOMEscan analysis relative to control
[26] = molecular target: Serine/threonine-protein kinase MRCK gamma (Homo sapiens) (UniProt Q6DT37); experiment: Inhibition of T7 bacteriophage fused human DMPK2 at 10 uM by KINOMEscan analysis relative to control
[27] = molecular target: Casein kinase II subunit alpha' (Homo sapiens) (UniProt P19784); experiment: Inhibition of T7 bacteriophage fused human CSNK2A2 at 10 uM by KINOMEscan analysis relative to control; values are per cent of control
Casein kinase II subunit alpha' (Homo sapiens), sequence (P19784 whole entry, looked up, the tested form may be a part): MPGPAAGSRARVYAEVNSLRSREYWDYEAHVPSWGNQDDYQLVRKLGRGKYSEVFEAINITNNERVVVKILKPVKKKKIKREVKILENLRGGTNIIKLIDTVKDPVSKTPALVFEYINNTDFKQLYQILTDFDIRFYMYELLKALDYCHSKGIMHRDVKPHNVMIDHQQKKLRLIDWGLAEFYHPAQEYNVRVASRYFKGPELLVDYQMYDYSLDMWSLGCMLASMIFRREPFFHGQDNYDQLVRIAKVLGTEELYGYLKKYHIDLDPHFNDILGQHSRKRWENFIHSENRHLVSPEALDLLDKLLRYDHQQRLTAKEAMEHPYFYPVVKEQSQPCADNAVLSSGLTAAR

[28] = molecular target: Citron Rho-interacting kinase (Homo sapiens) (UniProt O14578); experiment: Inhibition of T7 bacteriophage fused human CIT at 10 uM by KINOMEscan analysis relative to control; values are per cent of control
Citron Rho-interacting kinase (Homo sapiens), sequence (O14578 whole entry, the tested form may be a part): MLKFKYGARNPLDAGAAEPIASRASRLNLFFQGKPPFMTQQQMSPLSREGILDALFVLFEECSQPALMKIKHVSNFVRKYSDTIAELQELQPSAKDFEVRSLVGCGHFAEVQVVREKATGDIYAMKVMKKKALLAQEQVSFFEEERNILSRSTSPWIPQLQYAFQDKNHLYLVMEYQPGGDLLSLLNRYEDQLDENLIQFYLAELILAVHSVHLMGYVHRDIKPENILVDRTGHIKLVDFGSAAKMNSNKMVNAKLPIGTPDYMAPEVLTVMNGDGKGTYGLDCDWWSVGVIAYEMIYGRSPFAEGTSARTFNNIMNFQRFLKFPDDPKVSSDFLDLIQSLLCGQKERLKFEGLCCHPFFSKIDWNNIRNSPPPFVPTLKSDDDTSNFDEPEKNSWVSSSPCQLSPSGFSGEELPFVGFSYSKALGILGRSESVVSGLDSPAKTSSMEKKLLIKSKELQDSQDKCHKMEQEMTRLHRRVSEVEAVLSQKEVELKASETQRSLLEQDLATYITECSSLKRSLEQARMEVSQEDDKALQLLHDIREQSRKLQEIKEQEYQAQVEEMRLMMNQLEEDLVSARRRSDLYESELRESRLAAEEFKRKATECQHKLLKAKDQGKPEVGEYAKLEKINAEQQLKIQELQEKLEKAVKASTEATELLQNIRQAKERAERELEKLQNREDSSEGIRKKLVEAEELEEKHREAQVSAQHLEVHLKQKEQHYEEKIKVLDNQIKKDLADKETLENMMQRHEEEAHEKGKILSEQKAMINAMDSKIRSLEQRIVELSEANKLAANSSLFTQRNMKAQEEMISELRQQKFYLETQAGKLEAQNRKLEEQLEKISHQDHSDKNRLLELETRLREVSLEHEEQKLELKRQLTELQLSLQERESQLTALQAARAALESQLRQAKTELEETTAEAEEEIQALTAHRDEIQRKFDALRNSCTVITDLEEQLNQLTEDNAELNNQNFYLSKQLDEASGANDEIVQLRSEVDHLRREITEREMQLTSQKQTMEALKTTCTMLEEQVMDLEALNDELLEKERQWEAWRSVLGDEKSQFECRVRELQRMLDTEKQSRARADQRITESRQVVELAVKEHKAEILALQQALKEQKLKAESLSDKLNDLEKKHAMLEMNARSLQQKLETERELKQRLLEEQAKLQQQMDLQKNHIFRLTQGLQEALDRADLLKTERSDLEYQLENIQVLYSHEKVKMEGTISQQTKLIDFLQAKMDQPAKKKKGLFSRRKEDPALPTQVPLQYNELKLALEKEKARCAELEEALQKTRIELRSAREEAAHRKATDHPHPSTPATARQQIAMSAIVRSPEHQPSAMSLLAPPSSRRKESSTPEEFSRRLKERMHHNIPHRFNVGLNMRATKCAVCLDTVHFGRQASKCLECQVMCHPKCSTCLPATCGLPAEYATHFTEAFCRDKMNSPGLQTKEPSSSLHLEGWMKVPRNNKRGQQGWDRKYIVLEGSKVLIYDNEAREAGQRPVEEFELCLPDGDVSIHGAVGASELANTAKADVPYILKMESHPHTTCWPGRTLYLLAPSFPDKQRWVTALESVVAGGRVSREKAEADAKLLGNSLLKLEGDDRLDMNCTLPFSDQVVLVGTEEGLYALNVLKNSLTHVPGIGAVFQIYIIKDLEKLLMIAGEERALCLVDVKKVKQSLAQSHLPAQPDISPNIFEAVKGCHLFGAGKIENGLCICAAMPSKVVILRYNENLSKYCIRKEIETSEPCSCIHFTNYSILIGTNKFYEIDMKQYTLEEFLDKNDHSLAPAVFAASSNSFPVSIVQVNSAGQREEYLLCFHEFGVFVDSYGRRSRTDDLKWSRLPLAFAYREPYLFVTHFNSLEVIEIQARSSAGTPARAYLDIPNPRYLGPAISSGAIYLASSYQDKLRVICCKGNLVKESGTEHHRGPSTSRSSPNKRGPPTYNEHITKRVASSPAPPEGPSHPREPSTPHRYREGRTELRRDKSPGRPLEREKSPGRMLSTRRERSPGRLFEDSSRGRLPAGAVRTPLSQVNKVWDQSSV

[29] = molecular target: Mitogen-activated protein kinase 9 (Homo sapiens) (UniProt P45984); experiment: Inhibition of T7 bacteriophage fused human JNK2 at 10 uM by KINOMEscan analysis relative to control
[30] = molecular target: Rho-associated protein kinase 1 (Homo sapiens) (UniProt Q13464); experiment: Inhibition of T7 bacteriophage fused human ROCK1 at 10 uM by KINOMEscan analysis relative to control
[31] = molecular target: Leucine-rich repeat serine/threonine-protein kinase 2 (Homo sapiens) (UniProt Q5S007); experiment: Inhibition of wildtype GFP-tagged LRRK2 phosphorylation at Ser910 residue (unknown origin) transfected in HEK293 cells upto 3 uM incubated for 90 mins by immunoblot analysis; format: cell-based

COc1cc(N2CCC(N3CCN(C)CC3)CC2)ccc1Nc1ncc2c(n1)N(C)c1ccccc1C(=O)N2C showed an inhibition [1] of 100%, a residual activity [2] of 86% and an inhibition [3] of 87%. For the same compound, the residual activity [4] was 67%, the inhibition [5] was 100% and the inhibition [6] was 100%. It also gave an inhibition [7] of 100%, a residual activity [8] of 99% and an inhibition [9] of 84%. For the same compound, the residual activity [10] was 59%, the inhibition [11] was 90% and the inhibition [12] was 100%. It also gave an inhibition [13] of 100%, an inhibition [14] of 0.45% and an inhibition [15] of 100%. It also gave an inhibition [16] of 100%, an inhibition [17] of 100% and an inhibition [18] of 100%. The inhibition [19] was 100%, the inhibition [20] was 100% and the residual activity [21] was 87%. The inhibition [22] was 51%, the inhibition [23] was 83% and the inhibition [24] was 65%. It also gave an inhibition [25] of 100%, an inhibition [26] of 100% and a residual activity [27] of 93%. For the same compound, the residual activity [28] was 99%, the inhibition [29] was 94% and the inhibition [30] was 100%.
With CCOc1cc(C(=O)N2CCC(N3CCN(C)CC3)CC2)ccc1Nc1ncc2c(n1)N(C1CCCC1)c1ccccc1C(=O)N2C the inhibition [31] was “inactive”.
